Assay results taken from PMC7587356, “High-Throughput Screening for Inhibitors of the SARS-CoV-2 Protease Using a FRET-Biosensor” (Molecules, 2020).
Structures can show the parent of a compound that is named as a salt. Where two headings read alike, the source gives them in different places.

Molecular target: SARS-CoV-2 3CLpro (Severe acute respiratory syndrome coronavirus 2, UniProt P0DTD1)
Experiment: biochemical
Assay type: biochemical
Set-up: Replicate_1 / Replicate_2 / mean / mean (LOPAC_screen_w_protease): unit not given here
Details: for inhibition at 5 µM: 4 h
[1] = sheet LOPAC_screen_w_protease, LOPAC1280 primary screen at 5 µM, with protease, mean of the two replicates, read-out: mean
[2] = sheet LOPAC_screen_w_protease, LOPAC1280 primary screen at 5 µM, with protease, replicate 1, read-out: Replicate_1
[3] = sheet LOPAC_screen_w_protease, LOPAC1280 primary screen at 5 µM, with protease, replicate 2, read-out: Replicate_2
[4] = sheet LOPAC_screen_w_protease, LOPAC1280 at 5 µM, mean of two replicates
[5] = sheet LOPAC_screen_w_protease, LOPAC1280 at 5 µM, replicate 1
[6] = sheet LOPAC_screen_w_protease, LOPAC1280 at 5 µM, replicate 2
[7] = LOPAC1280 primary screen with protease, 5 µM compound, mean of the two replicates
[8] = LOPAC1280 primary screen with protease, 5 µM compound, replicate 1
[9] = LOPAC1280 primary screen with protease, 5 µM compound, replicate 2
[10] = sheet LOPAC_screen_w_protease, primary screen at 5 µM, mean of two replicates
[11] = sheet LOPAC_screen_w_protease, primary screen at 5 µM, replicate 1
[12] = sheet LOPAC_screen_w_protease, primary screen at 5 µM, replicate 2
[13] = sheet LOPAC_screen_w_protease, LOPAC1280 primary screen with protease, 5 µM compound, mean of the two replicates
[14] = sheet LOPAC_screen_w_protease, LOPAC1280 primary screen with protease, 5 µM compound, replicate 1
[15] = sheet LOPAC_screen_w_protease, LOPAC1280 primary screen with protease, 5 µM compound, replicate 2
[16] = sheet LOPAC_screen_w_protease, LOPAC1280 primary screen at 5 µM, with protease, mean of the two replicates
[17] = sheet LOPAC_screen_w_protease, LOPAC1280 primary screen at 5 µM, with protease, replicate 1
[18] = sheet LOPAC_screen_w_protease, LOPAC1280 primary screen at 5 µM, with protease, replicate 2
[19] = sheet LOPAC_screen_w_protease, primary screen with protease, 5 µM, mean of two replicates, read-out: mean
[20] = sheet LOPAC_screen_w_protease, primary screen with protease, 5 µM, replicate 1, read-out: Replicate_1
[21] = sheet LOPAC_screen_w_protease, primary screen with protease, 5 µM, replicate 2, read-out: Replicate_2
[22] = LOPAC1280 primary screen with protease, 5 µM compound, mean of two replicates

Work on `CN/C(=N\c1ccc(C2=NNC(=O)CC2C)cc1)NC#N` (centres unmarked) [SKF 94836] yielded an inhibition at 5 µM [1] of 0.836%, an inhibition at 5 µM [2] of 1.39% and an inhibition at 5 µM [3] of 0.284%.

For `CCCN1CCC[C@H](c2cccc(O)c2)C1.Cl` [R(+)-3PPP hydrochloride], the mean [4] was 0.9121, the Replicate_1 [5] was 1.657 and the Replicate_2 [6] was 0.167.

For `Cl.Nc1c2c(nc3ccccc13)CCCC2`, the Replicate_1 was 1.645, the Replicate_2 was 0.8036 and the mean was 1.2241.

With `Br.Br.N=C(N)SCCN` the “mean (LOPAC_screen_w_protease)” value [7] was 2.032, the “Replicate_1 (LOPAC_screen_w_protease)” value [8] was 2.956 and the “Replicate_2 (LOPAC_screen_w_protease)” value [9] was 1.108.

With `Cc1ccc(S(=O)(=O)N[C@@H](CCCCN)C(=O)CCl)cc1.Cl` the “mean (LOPAC screen with protease)” value [10] was 20.7427, the “Replicate_1 (LOPAC screen with protease)” value [11] was 21.9131 and the “Replicate_2 (LOPAC screen with protease)” value [12] was 19.5724.

In the case of `NNc1nncc2ccccc12` [Hydralazine hydrochloride], the inhibition at 5 µM (read-out: Replicate_1) is reported as 4.76%, the inhibition at 5 µM (read-out: Replicate_2) is reported as 1.31% and the inhibition at 5 µM (read-out: mean) is reported as 3.03%.

Compound `Cc1nc2n(c(=O)c1CCN1CCC(c3noc4cc(F)ccc34)CC1)CCCC2` [Risperidone] has an inhibition at 5 µM (sheet LOPAC_screen_w_protease, LOPAC1280 at 5 µM, mean of two replicates, read-out: mean) of 0.962%, an inhibition at 5 µM (sheet LOPAC_screen_w_protease, LOPAC1280 at 5 µM, replicate 1, read-out: Replicate_1) of 1.3% and an inhibition at 5 µM (sheet LOPAC_screen_w_protease, LOPAC1280 at 5 µM, replicate 2, read-out: Replicate_2) of 0.627%.

`CNCCCC12CCC(c3ccccc31)c1ccccc12` [Maprotiline hydrochloride] showed an inhibition at 5 µM (read-out: Replicate_1) of 4%, an inhibition at 5 µM (read-out: Replicate_2) of 5.55% and an inhibition at 5 µM (read-out: mean) of 4.77%.

`c1ccc2c(c1)OCC(C1=NCCN1)O2` (centres unmarked) [Idazoxan hydrochloride] showed an inhibition at 5 µM (read-out: Replicate_1 (LOPAC_screen_w_protease)) of 1.08% and an inhibition at 5 µM (read-out: Replicate_2 (LOPAC_screen_w_protease)) of 2.66%.

For `C[N+](C)(C)CCO.[Br-]` [Choline bromide], the Replicate_1 was 2.262, the Replicate_2 was 3.547 and the mean was 2.905.

Compound MDL 26,630 trihydrochloride has a mean [13] of 6.178, a Replicate_1 [14] of 5.659 and a Replicate_2 [15] of 6.697.

With `CCCCS(=N)(=O)CCC(N)C(=O)O` (racemic) [DL-Buthionine-[S,R]-sulfoximine] the mean [16] was 0.7813, the Replicate_1 [17] was 0.9596 and the Replicate_2 [18] was 0.6029.

`O=C(c1ccc(F)cc1)C1CCN(CCn2c(=O)[nH]c3ccccc3c2=O)CC1` [Ketanserin tartrate] showed an inhibition at 5 µM (sheet LOPAC_screen_w_protease, LOPAC1280 primary screen at 5 µM, with protease, mean of two replicates, read-out: mean) of -1.02%, an inhibition at 5 µM [2] of 1.01% and an inhibition at 5 µM [3] of -3.04%.

`Cl.OC1CCCCC1N1CCC(c2ccccc2)CC1` (racemic) [(±)-Vesamicol hydrochloride] showed a mean [16] of 0.573, a Replicate_1 [17] of 1.205 and a Replicate_2 [18] of -0.05902.

With `COc1ccc(C2CNC(=O)C2)cc1OC1CCCC1` (centres unmarked) [Rolipram] the inhibition at 5 µM [19] was -0.575%, the inhibition at 5 µM [20] was -0.0105% and the inhibition at 5 µM [21] was -1.14%.

`O=C1c2c(O)cc(O)cc2O[C@H](c2ccc(O)c(O)c2)[C@H]1O` (racemic) [(±)-Taxifolin] was tested, and the “mean (LOPAC screen with protease)” value [10] was 7.529, the “Replicate_1 (LOPAC screen with protease)” value [11] was 9.2588 and the “Replicate_2 (LOPAC screen with protease)” value [12] was 5.799.

Compound `COCc1nc2c([nH]1)c(=O)n(C)c(=O)n2CC(C)C` has a mean [13] of 5.36, a Replicate_1 [14] of 6.304 and a Replicate_2 [15] of 4.4152.

With `NC(CO)(CO)CO.O=C(c1ccccc1)c1ccc2n1CCC2C(=O)O` (centres unmarked) [Ketorolac tris salt] the “mean (LOPAC_screen_w_protease)” value [22] was 1.7087, the “Replicate_1 (LOPAC_screen_w_protease)” value [8] was 1.974 and the “Replicate_2 (LOPAC_screen_w_protease)” value [9] was 1.443.

Compound `C[C@H](N)CN1CCc2ccc(Br)cc21.C[C@H](N)CN1CCc2ccc(Br)cc21.O=C(O)/C=C/C(=O)O` [VER-3323 hemifumarate salt] has a mean [16] of 0.8173, a Replicate_1 [17] of 0.78 and a Replicate_2 [18] of 0.8545.

`Nc1nc(O)c2ncn(COC(CO)CO)c2n1` [Ganciclovir] gave an inhibition at 5 µM [1] of 0.74%, an inhibition at 5 µM [2] of 1% and an inhibition at 5 µM [3] of 0.479%.

For `CC(=O)[C@H]1CC[C@H]2[C@@H]3CC[C@H]4C[C@H](O)CC[C@]4(C)[C@H]3C(=O)C[C@]12C` [5alpha-Pregnan-3alpha-ol-11,20-dione], the mean (sheet LOPAC_screen_w_protease, primary screen with protease, mean of two replicates) was 2.341, the Replicate_1 (sheet LOPAC_screen_w_protease, primary screen with protease, replicate 1) was 0.8983 and the Replicate_2 (sheet LOPAC_screen_w_protease, primary screen with protease, replicate 2) was 3.784.

With `CCNC(=O)N1CCN(CCCC(c2ccc(F)cc2)c2ccc(F)cc2)CC1` [Amperozide hydrochloride] the inhibition at 5 µM [19] was 0.1%, the inhibition at 5 µM [20] was 0.58% and the inhibition at 5 µM [21] was -0.38%.

With `CCCn1c(C)c(C(=O)c2cccc3ccccc23)c2ccccc21` [JWH-015] the “mean (LOPAC_screen_w_protease)” value [22] was 1.386, the “Replicate_1 (LOPAC_screen_w_protease)” value [8] was 1.748 and the “Replicate_2 (LOPAC_screen_w_protease)” value [9] was 1.024.

In the case of `Nc1ccc(CCN2CCN(c3cccc(C(F)(F)F)c3)CC2)cc1` [PAPP], the mean (sheet LOPAC_screen_w_protease, LOPAC1280 primary screen at 5 µM, with protease, mean of two replicates) is reported as -1.528, the Replicate_1 [17] is reported as -1.095 and the Replicate_2 [18] is reported as -1.96.

`CC(=O)N[C@@H](CS)C(=O)O` [N-Acetyl-L-Cysteine] showed an inhibition at 5 µM (read-out: Replicate_1) of 0.481%, an inhibition at 5 µM (read-out: Replicate_2) of 0.723% and an inhibition at 5 µM (read-out: mean) of 0.602%.

`NC[C@@H]1O[C@H](O[C@H]2[C@@H](O)[C@H](O[C@@H]3[C@@H](O)[C@H](N)C[C@H](N)[C@H]3O[C@H]3O[C@H](CO)[C@@H](O)[C@H](O)[C@H]3N)O[C@@H]2CO)[C@H](N)[C@@H](O)[C@@H]1O` [Paromomycin sulfate] showed an inhibition at 5 µM (sheet LOPAC_screen_w_protease, primary screen at 5 µM, mean of two replicates, read-out: mean (LOPAC screen with protease)) of 7.62%, an inhibition at 5 µM (sheet LOPAC_screen_w_protease, primary screen at 5 µM, replicate 1, read-out: Replicate_1 (LOPAC screen with protease)) of 8.4% and an inhibition at 5 µM (sheet LOPAC_screen_w_protease, primary screen at 5 µM, replicate 2, read-out: Replicate_2 (LOPAC screen with protease)) of 6.83%.

In the case of `CN(C)c1ccc(O)c2c1C[C@H]1C[C@H]3[C@H](N(C)C)C(O)=C(C(N)=O)C(=O)[C@@]3(O)C(O)=C1C2=O` [Minocycline hydrochloride], the inhibition at 5 µM (sheet LOPAC_screen_w_protease, LOPAC1280 primary screen with protease, 5 µM compound, mean of the two replicates, read-out: mean) is reported as 5.31%, the inhibition at 5 µM (sheet LOPAC_screen_w_protease, LOPAC1280 primary screen with protease, 5 µM compound, replicate 1, read-out: Replicate_1) is reported as 4.79% and the inhibition at 5 µM (sheet LOPAC_screen_w_protease, LOPAC1280 primary screen with protease, 5 µM compound, replicate 2, read-out: Replicate_2) is reported as 5.84%.

`N=C(N)c1ccc(N)cc1` [4-Aminobenzamidine dihydrochloride] gave an inhibition at 5 µM [19] of -0.229%, an inhibition at 5 µM [20] of 1.52% and an inhibition at 5 µM [21] of -1.98%.

(+)-Cyclazocine was tested, and the mean [4] was 1.031, the Replicate_1 [5] was 2.203 and the Replicate_2 [6] was -0.1419.

Work on `COc1ccc2c(c1O)-c1cccc3c1[C@@H](C2)N(C)CC3.Cl` [R(-)-Apocodeine hydrochloride] yielded a mean [13] of 6.058, a Replicate_1 [14] of 6.597 and a Replicate_2 [15] of 5.52.

In the case of `CCc1ccccc1OC[C@@H](O)CN[C@H]1CCCc2ccccc21.O=C(O)C(=O)O` [SR 59230A oxalate], the mean (sheet LOPAC_screen_w_protease, primary screen with protease, 5 µM, mean of two replicates) is reported as -0.0002221, the Replicate_1 (sheet LOPAC_screen_w_protease, primary screen with protease, 5 µM, replicate 1) is reported as 1.088 and the Replicate_2 (sheet LOPAC_screen_w_protease, primary screen with protease, 5 µM, replicate 2) is reported as -1.089.

Compound `COc1ccc(/C=C/C(=O)Nc2ccccc2C(=O)O)cc1OC` [Tranilast] has an inhibition at 5 µM (read-out: Replicate_1) of 0.566%, an inhibition at 5 µM (read-out: Replicate_2) of -2.13% and an inhibition at 5 µM (read-out: mean) of -0.784%.

In the case of `[N-]=[N+]=Nc1ccc(C(=O)CSC[C@H](NC(=O)CC[C@H](N)C(=O)O)C(=O)NCC(=O)O)cc1` [S-(p-Azidophenacyl)glutathione], the mean (sheet LOPAC_screen_w_protease, primary screen with protease, compound at 5 µM, mean of two replicates) is reported as 2.647, the Replicate_1 (sheet LOPAC_screen_w_protease, primary screen with protease, compound at 5 µM, replicate 1) is reported as 2.672 and the Replicate_2 (sheet LOPAC_screen_w_protease, primary screen with protease, compound at 5 µM, replicate 2) is reported as 2.621.

With `CN1CCN(CCCN2c3ccccc3Sc3ccc(C(F)(F)F)cc32)CC1` [Trifluoperazine dihydrochloride] the inhibition at 5 µM [19] was 0.187%, the inhibition at 5 µM [20] was 0.0814% and the inhibition at 5 µM [21] was 0.293%.

In the case of `O=C(CCCN1CCC(O)(c2ccc(Cl)cc2)CC1)c1ccc(F)cc1` [Haloperidol], the inhibition at 5 µM (LOPAC1280 primary screen with protease, 5 µM compound, replicate 1, read-out: Replicate_1 (LOPAC_screen_w_protease)) is reported as 2.99%, the inhibition at 5 µM (LOPAC1280 primary screen with protease, 5 µM compound, replicate 2, read-out: Replicate_2 (LOPAC_screen_w_protease)) is reported as 0.623% and the “mean (LOPAC_screen_w_protease)” value [7] is reported as 1.809.

For `CN1CCc2ccccc2Cc2[nH]c3ccccc3c2CC1` [LE 300], the Replicate_1 was 0.4919, the Replicate_2 was 1.5197 and the mean was 1.0058.
